Data set [1] has as its system MCF-7 cells. The experiment in a line: Growth inhibition, MCF-7 breast cancer cells. It is filed as cell-based. The note with it: Homo sapiens, MCF7; Table 11; read-out: Cytotoxicity, IC50 (μM) MCF-7. The source says: (§1) All samples were in triplicate.
Data set [2] concerns MDA-MB-231 cells. Nature of the data set: Growth inhibition, MDA-MB-231 breast cancer cells. The format is cell-based. The note with it: Homo sapiens, MDA-MB-231; Table 11; read-out: Cytotoxicity, IC50 (μM) MDA-MB231.
Text: as §1

For data set [3], the system named is H-1975 cells. The experiment in a line: Growth inhibition, H-1975 lung cancer cells. The format is cell-based. The conditions noted are these: Homo sapiens, NCI-H1975; Table 11; read-out: Cytotoxicity, IC50 (μM) H-1975.
Text: as §1

In data set [4] the test system is LNCaP cells. The conditions noted are these: human, 72 h.
The test system of data set [5] is PC-3 cells. Nature of the data set: MTT cell growth inhibition, PC-3.
Data set [6] concerns LNCaP cells. The experiment in a line: MTT cell growth inhibition, LNCaP.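 Note: MTT formazan absorbance at 600 nm read after 72 h of compound exposure, IC50 fitted by nonlinear regression of dose-response curves, samples run in triplicate.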
In data set [7] the test system is 22Rv1 cells. Nature of the data set: MTT cell growth inhibition, 22Rv1. The note with it: MTT.
Data set [8] relates to C4-2B cells. Nature of the data set: MTT cell growth inhibition, C4-2B.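 Note: cells treated with a dilution series for 72 h, then MTT added and absorbance read at 600 nm, IC50 fitted from dose-response curves by nonlinear regression.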
The test system of data set [9] is MDA PCa 2b cells. Nature of the data set: MTT cell growth inhibition, MDA PCa 2b.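 Note: MDA PCa 2b prostate cancer cells in BRFF-HPC1 with 20% FBS, exposed to compounds for 72 h, viable-cell MTT formazan read as absorbance at 600 nm, 0.5% DMSO vehicle.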 The note with it: MTT.
Procedure: MDA PCa 2b was seeded at the same density in medium BRFF-HPC1 (Athena Enzyme Systems, Baltimore, Md., USA) supplemented with 20% FBS. After overnight incubation, the medium was changed to a fresh medium containing different concentrations of test compounds diluted from stock DMSO solution. The final concentration of DMSO is 0.5%. After 72 h of incubation with test compounds, 20 μL of 3-(4,5-dimethyl thiazol-2-yl)-2,5-diphenyltetrazolium bromide (MTT) solution (5 mg/mL in PBS) were added to each well and incubated further for 2 h. Next, the supernatant was aspirated and the MTT formazan formed by metabolically viable cells was dissolved in 100 μL of isopropanol. The plates were mixed for 30 min, and the absorbance was measured at 600 nm on a plate reader (FLUOstar OPTIMA, BMG LabTech). All samples were in triplicate. The IC50 values were determined from dose-response curves by nonlinear regression using PRISM v5.00 (GraphPad Software Inc, La Jolla, Calif., USA).
The in vitro cytotoxicity of 1-20 were evaluated by MTT assays in a panel of prostate cancer cell lines, including LNCaP, MDA PCa 2b, 22Rv1, C4-2B and PC-3.
Data set [10] deals with C4-2B cells. The note with it: human, 72 h.
The test system of data set [11] is PC-3 cells. The conditions noted are these: human, 72 h.
The mark [12] stands for this setting: read-out: Cellular IC50 (μM) PC-3, Table 2, 72 h, max tested 50 μM (β-ionone 150 μM).
Setting [13] is: read-out: Cellular IC50 (μM) LNCaP, Table 2, 72 h.
[14] abbreviates: read-out: Cellular IC50 (μM) 22Rv1, Table 2, 72 h.
Where [15] appears, read: read-out: Cellular IC50 (μM) C4-2B, Table 2, 72 h.
Where [16] appears, read: read-out: Cellular IC50 (μM) PCa 2b, Table 2, 72 h.
Setting [17] is: read-out: Cellular IC50 (μM) PC3, Table 8.
The mark [18] stands for this setting: read-out: Cellular IC50 (μM) LNCaP, Table 8.
[19] abbreviates: read-out: Cellular IC50 (μM) 22Rv1, Table 8.
The mark [20] stands for this setting: read-out: Cellular IC50 (μM) C4-2B, Table 8.
The mark [21] stands for this setting: read-out: Cellular IC50 (μM) PCa2b, Table 8.

The values that follow come from patent US8470889B2 (TRT Pharma Inc., priority 2008, dated 2013).

Each structure is given as a SMILES string. Where two headings read alike, the source gives them in different places.

Usually IC50 stands for the concentration at which inhibition is half-maximal. In the case of `CC(=O)N1N=C(/C=C/C2C(C)=CCCC2(C)C)CC1c1ccccc1F` (stereo not drawn) [Compound C1], the IC50 was found to be 25.3 µM in [1], 20.4 µM in data set [2], 23.7 µM in [3] and 17.1 µM in data set [4].

As to `CC(O)(CS(=O)(=O)c1ccc(F)cc1)C(=O)Nc1ccc(C#N)c(C(F)(F)F)c1` (stereo not drawn) [Bic, bicalutamide, reference compound], the “Cytotoxicity in prostate cancer cell lines IC50 (μM), PC-3” value in data set [5] (Part D table, 72 hours, I.A. = Inactive) is listed as “I.A”. Moreover, the IC50 was 12.7 µM in [6] (read-out: Cytotoxicity in prostate cancer cell lines IC50 (μM), LNCaP, Part D table, 72 hours, I.A. = Inactive); greater than 50 µM in data set [7] (read-out: Cytotoxicity in prostate cancer cell lines IC50 (μM), 22Rv1, Part D table, 72 hours); greater than 25 µM in [8] (read-out: Cytotoxicity in prostate cancer cell lines IC50 (μM), C4-2B, Part D table, 72 hours, I.A. = Inactive); greater than 50 µM in data set [9] (read-out: Cytotoxicity in prostate cancer cell lines IC50 (μM), PCa-2b, Part D table, 72 hours).

Consider `CCn1c2ccccc2c2cc(/C=C(\C(=O)/C=C/C3=C(C)CCCC3(C)C)C(=O)/C=C/c3ccc(O)c(OC)c3)ccc21` [Compound 19], for which the IC50 amounted to 7 µM in data set [5] (setting [12]); 2.3 µM in data set [6] (setting [13]); 2.4 µM in data set [7] (setting [14]); 2.3 µM in data set [8] (setting [15]); 8.1 µM in data set [9] (setting [16]).

On to `CC1=C(/C=C/C(=O)/C=C/c2cccc(C(F)(F)F)c2)C(C)(C)CCC1O` (stereo not drawn) [Compound B45], for which the IC50 in data set [5] (setting [17]) worked out at 3.5 µM; in [6] (setting [18]), 0.74 µM; in [7] (setting [19]) it was 1.7 µM; in data set [8] (setting [20]) it was 1.4 µM; in data set [9] (setting [21]), 2.6 µM.

For `CC(=O)N1N=C(/C=C/C2C(C)=CCCC2(C)C)CC1c1ccccc1C(F)(F)F` (stereo not drawn) [Compound C6], the IC50 in [1] was found to be 18.3 µM; in data set [2], 15.4 µM; in data set [3], 18.3 µM; in [4] it was 18.2 µM; in [10] it was 16.6 µM.

In the case of `CC(=O)N1N=C(/C=C/C2C(C)=CCCC2(C)C)CC1c1ccc(C(F)(F)F)cc1` (stereo not drawn) [Compound C7], the IC50 came to 20.8 µM in [1]; 20 µM in [2]; 17.9 µM in [3]; 16.6 µM in data set [4]; 14.4 µM in [10].

Take `CCOc1ccc(C=CC(=O)C(=Cc2ccc(OCC)c(OCC)c2)C(=O)C=CC2=C(C)CCCC2(C)C)cc1OCC` [Compound 13]: the IC50 is 14.1 µM in data set [5] (setting [12]), 14.9 µM in data set [6] (setting [13]) and 6.8 µM in data set [9] (setting [16]).

With `CC1=CCCC(C)(C)C1/C=C/C1=NNC(c2cccc(C(F)(F)F)c2)C1` (stereo not drawn) [Compound C5], the IC50 in data set [1] was found to be 17.6 µM; in data set [2], 15.8 µM; in [3], 19.2 µM; in [4] it was 10.9 µM; in data set [10] it was 5.7 µM.

Turning to `COc1cc(C=CC(=O)C(=Cc2cc(OC)c(O)c(OC)c2)C(=O)C=CC2=C(C)CCCC2(C)C)cc(OC)c1O` [Compound 15], the half-maximal inhibitory concentration (IC50) in [5] (setting [12]) worked out at 12.5 µM; in data set [6] (setting [13]), 8.7 µM; in data set [7] (setting [14]) it was 17.6 µM; in data set [8] (setting [15]), 8.5 µM; in [9] (setting [16]), 15.3 µM.

Take `CC(=O)N1N=C(/C=C/C2C(C)=CCCC2(C)C)CC1c1cccc(C(F)(F)F)c1` (stereo not drawn) [Compound C2]: the IC50 in data set [1] is 23.1 µM; in data set [2], 14.4 µM; in [3], 14.8 µM; in data set [4], 16.8 µM; in [10] it was 12.2 µM; in [11], 15.9 µM.

With `COc1ccc(C2CC(/C=C/C3=C(C)C(O)CCC3(C)C)=NN2C(C)=O)cc1OC` (stereo not drawn) [Compound C3], the IC50 in [1] was greater than 25 µM; in [2], greater than 25 µM; in [3] it was greater than 25 µM; in [4], 24.7 µM; in [10], 22.1 µM; in [11] it was 25.5 µM.

Consider `CC1=C(/C=C/C(=O)/C=C/c2ccccc2)C(C)(C)CCC1O` (stereo not drawn) [Compound B44], for which the IC50 worked out at 15.5 µM in data set [5] (setting [17]); 5.8 µM in data set [6] (setting [18]); 8 µM in data set [7] (setting [19]); 1.8 µM in [8] (setting [20]); 12.6 µM in data set [9] (setting [21]).

For the compound `CC1=C(C=CC(=O)C(=Cc2ccc(O)cc2)C(=O)C=Cc2ccc(O)cc2)C(C)(C)CCC1` [Compound 14], the IC50 turned out to be 6.7 µM in data set [5] (setting [12]); 4.5 µM in data set [6] (setting [13]); 4.7 µM in data set [7] (setting [14]); 4 µM in [8] (setting [15]); 4.7 µM in data set [9] (setting [16]).

Regarding `COc1cc(/C=C/C(=O)/C=C/C2=C(C)C(O)CCC2(C)C)ccc1O` (stereo not drawn) [Compound B68], the IC50 is 32.9 µM in [5] (setting [17]); 19.6 µM in data set [6] (setting [18]); 22.6 µM in data set [7] (setting [19]); 20.3 µM in data set [8] (setting [20]); greater than 25 µM in data set [9] (setting [21]).

Consider `CC(=O)N1N=C(/C=C/C2=C(C)C(O)CCC2(C)C)CC1c1cccc(C(F)(F)F)c1` (stereo not drawn) [Compound C4], for which the IC50 in data set [1] was greater than 25 µM; in [2], greater than 25 µM; in [3], greater than 25 µM; in [4], 35.4 µM; in data set [10], 17.8 µM; in data set [11], 47 µM.
